Converted amounts (≈) assume the structure as drawn.
What was measured:
[1] = system: Pseudo. aeruginosa IAM1095; test: MIC by agar dilution method, Pseudo. aeruginosa IAM1095; assay type: cell-based; conditions: Pseudomonas aeruginosa, read-out: minimum inhibitory concentration (MIC)
[2] = system: Salm. enteritidis Gaertner; test: MIC by agar dilution method, Salm. enteritidis Gaertner; assay type: cell-based; conditions: Salmonella enterica, read-out: minimum inhibitory concentration (MIC)
[3] = system: Enterobac. cloacae GN336; test: MIC by agar dilution method, Enterobac. cloacae GN336; assay type: cell-based; conditions: read-out: minimum inhibitory concentration (MIC)
[4] = system: Staph. epidermidis sp-al-1; test: MIC by agar dilution method, Staph. epidermidis sp-al-1; assay type: cell-based; conditions: Staphylococcus epidermidis, SPAL1, read-out: minimum inhibitory concentration (MIC)
[5] = system: Bacillus subtilis ATCC6633; test: MIC by agar dilution method, Bacillus subtilis ATCC6633; assay type: cell-based; conditions: read-out: minimum inhibitory concentration (MIC)
[6] = system: Shigella sonnei E33; test: MIC by agar dilution method, Shigella sonnei E33; assay type: cell-based; conditions: read-out: minimum inhibitory concentration (MIC)
[7] = system: Proteus morganii 0239; test: MIC by agar dilution method, Proteus morganii 0239; assay type: cell-based; conditions: Morganella morganii, read-out: minimum inhibitory concentration (MIC)
[8] = system: Enterobac. aerogenes 0655; test: MIC by agar dilution method, Enterobac. aerogenes 0655; assay type: cell-based; conditions: read-out: minimum inhibitory concentration (MIC)
[9] = system: Cit. freundii GN346; test: MIC by agar dilution method, Cit. freundii GN346; assay type: cell-based; conditions: Citrobacter freundii, read-out: minimum inhibitory concentration (MIC)
[10] = system: Staph. aureus ATCC6538P; test: MIC by agar dilution method, Staph. aureus ATCC6538P; assay type: cell-based; conditions: Staphylococcus aureus, read-out: minimum inhibitory concentration (MIC)
[11] = system: E. coli NIHJ-JC2; test: MIC by agar dilution method, E. coli NIHJ-JC2; assay type: cell-based; conditions: Escherichia coli, NIHJJC2, read-out: minimum inhibitory concentration (MIC)
[12] = system: Kleb. pneumoniae ATCC10031; test: MIC by agar dilution method, Kleb. pneumoniae ATCC10031; assay type: cell-based; conditions: Klebsiella pneumoniae, read-out: minimum inhibitory concentration (MIC)
[13] = system: E. coli W3630RGN14; test: MIC by agar dilution method, E. coli W3630RGN14; assay type: cell-based; conditions: Escherichia coli, W3630RGN14, read-out: minimum inhibitory concentration (MIC)
[14] = system: E. coli W3630; test: MIC by agar dilution method, E. coli W3630; assay type: cell-based; conditions: Escherichia coli, read-out: minimum inhibitory concentration (MIC)
[15] = system: Serratia marcescens; test: MIC by agar dilution method, Serratia marcescens; assay type: cell-based; conditions: read-out: minimum inhibitory concentration (MIC)
[16] = system: Staph. aureus MS27; test: MIC by agar dilution method, Staph. aureus MS27; assay type: cell-based; conditions: Staphylococcus aureus, read-out: minimum inhibitory concentration (MIC)
[17] = system: Staph. aureus 0119; test: MIC by agar dilution method, Staph. aureus 0119; assay type: cell-based; conditions: Staphylococcus aureus, read-out: minimum inhibitory concentration (MIC)
[18] = system: Strept. pyogenes N.Y. 5; test: MIC by agar dilution method, Strept. pyogenes N.Y. 5; assay type: cell-based; conditions: Streptococcus pyogenes, read-out: minimum inhibitory concentration (MIC)
[19] = Solubility; assay type: physicochemical
[20] = system: Proteus rettgeri ACR; test: MIC by agar dilution method, Proteus rettgeri ACR; assay type: cell-based; conditions: Providencia rettgeri, read-out: minimum inhibitory concentration (MIC)

## CNC1C(O)C(NC)C2OC3(O)C(OC)=CC(C)OC3OC2C1O (stereo not drawn) [acmimycin]
[1]
  MIC: > 100 µg/mL
[2]
  MIC: 25 µg/mL (≈ 72.2 µM)
[3]
  MIC: 50 µg/mL (≈ 144 µM)
[4]
  MIC: 50 µg/mL (≈ 144 µM)
[5]
  MIC: 25 µg/mL (≈ 72.2 µM)
[6]
  MIC: 25 µg/mL (≈ 72.2 µM)
[7]
  MIC: > 100 µg/mL
[8]
  MIC: > 100 µg/mL
[9]
  MIC: > 100 µg/mL
[10]
  MIC: 100 µg/mL (≈ 289 µM)
[11]
  MIC: 50 µg/mL (≈ 144 µM)
[12]
  MIC: 12.5 µg/mL (≈ 36.1 µM)
[13]
  MIC: > 100 µg/mL
[14]
  MIC: 25 µg/mL (≈ 72.2 µM)
[15]
  MIC: 25 µg/mL (≈ 72.2 µM)
[16]
  MIC: 100 µg/mL (≈ 289 µM)
[17]
  MIC: > 100 µg/mL
[18]
  MIC: 3.1 µg/mL (≈ 8.95 µM)
[19]; in acetone
  Solubility: insoluble
[19]; in benzene
  Solubility: insoluble
[19]; in ethyl acetate
  Solubility: insoluble
[19]; in lower alcohols such as methanol
  Solubility: slightly soluble
[19]; in water
  Solubility: soluble
[20]
  MIC: 100 µg/mL (≈ 289 µM)

— US4517296A, “Antibiotic acmimycin and its production” (Toyo Jozo Kabushiki Kaisha, priority 1982, dated 1985)
